From a melting point compilation (Tetko et al.; mined from patent text by program, amines drawn as free bases though some values may be those of a salt)
Non-standard residues stand in square brackets, D forms with d. Residues, ends and D or L forms follow the SMILES beside them. *: point of attachment. pGlu = O=C1CC[CH](C(=O)O)N1; Morpholide = C1CN(*)CCO1; Thz = O=C(O)[CH]1CSCN1

Compound	melting point
CC(c1ccc(Cl)cc1)N1CCC2(CC1)Cc1ccccc1O2 (centres undefined)	64 to 66 °C
CC(C)(C)[C@@H]1CCc2nc3sc(C(=O)N[C@H](CN)c4cccc(NC(=O)c5ccno5)c4)cc3cc2C1	98 to 102 °C
CSC1=NCCc2nc(C)nn21	75.5 to 76.5 °C
Cc1c(C(=O)Nc2ccc(N3CCC(N4CCOCC4)CC3)c(C#N)c2)cnn1-c1ccccn1	251 °C
N#CCc1cccnc1C#N	48 to 51 °C
C1=Nc2c(cnc3ccccc23)OC12CCCCC2	164 to 165 °C
Cc1ccc2c(n1)sc1c(S)nnnc12	205 to 208 °C
CCCCc1nc2ccn(Cc3ccccc3)c(=O)c2n1Cc1ccc(-c2ccccc2-c2nnn[nH]2)cc1	130 °C
CN(C)C(=O)NS(=O)(=O)c1ccccc1OC(Cl)=CCl	218 to 220 °C
NC(=O)N1CCCC(CC(=O)c2ccc(F)cc2)C1 (centres undefined)	136 to 138 °C
O=C(Cc1c(-c2ccccc2)c2cc3c(cc2oc1=O)C(O)CC3)Nc1ccc(F)cc1C(F)(F)F (centres undefined)	217 to 218 °C
COC(=O)C(O)C(CC(C)C)NC(=O)C(CC(C)C)NC(=O)C(CC(=O)N1CCOCC1)Cc1cccc2ccccc12 (mixture of isomers)	69 to 70 °C
O=C1C(=C(O)Cc2ccccc2)SC(=S)N1c1ccc(Cl)cc1	134 to 137 °C
COc1cccc(CNc2ncnc3c2sc2nc(N(C)C)c4c(c23)CC(C)(C)CC4)c1OC	91.9 to 93 °C
CCCCNc1c2c(nc3c1cnn3CC)CCc1ccccc1C2=O	91 to 93 °C
CCCNC(=S)NS(=O)(=O)c1cc2c(cc1OC)OCCC2CNC(=O)N1CC(C)=C(CC)C1=O (centres undefined)	96 to 98 °C
Cc1ccccc1C(=O)Nc1ccc(C(=O)N2Cc3ccccc3Cc3ccccc32)c(Cl)c1	138 to 150 °C
CCOC(=O)c1cc(Cl)n2ncnc2n1	92.5 to 94 °C
O=c1c(CO)c(-c2ccc(O)cc2)oc2ccccc12	234 to 235 °C
CCn1cnc2c(Nc3cccc(F)c3)nc(NCCO)nc21	184 °C
Cc1cc(Sc2ccccc2)ccc1N	64 to 65 °C

Compound	melting point
NS(=O)(=O)c1cc2sc(C=O)cc2s1	203 to 204 °C
COc1nc(OC)nc(Oc2ccccc2C(=O)O)n1	152 °C
CCCOc1cc(CCCOc2c(CC(=O)O)cccc2OC)n(Cc2ccc(C(F)(F)F)cc2)n1	122 to 123 °C
Cc1nnc2n1-c1ccccc1C(c1ccccc1)=NC2	216 to 218 °C
C=C(C)C(=O)OCCCCCc1ccc(C(F)(F)Oc2ccc(OC(F)(F)c3ccc(CCCCCOC(=O)C(=C)C)cc3)c(C)c2)cc1	26 °C
BrCc1nc2cc(OCc3ccccc3)ccc2s1	87 to 89 °C
CCOC(=O)C1CC(O)c2c(C)c(O)c(C)c(C)c2O1 (centres undefined)	138 to 144 °C
NC(Cc1nc2cc(F)c(F)cc2nc1CP(=O)(O)O)C(=O)O (centres undefined)	144 to 145 °C
CCCCCCCCCCCC(=O)OC[C@H]1OCC(=NOCc2ccccc2)[C@@H](O)[C@@H]1O	45 to 50 °C
Cc1ccc(S(=O)(=O)NCCc2cccc(OCC(=O)Nc3nnn[nH]3)c2)cc1	199 to 201 °C
O=C1CCC(C(=O)N2CSCC2C(=O)N2CCOCC2)N1 (centres undefined) ([pGlu]-[Thz]-Morpholide; configuration not given here)	187 to 188 °C
CC1(C)C(C#N)C1C(=O)O (centres undefined)	101 to 106 °C
O=C(NCCCCc1ccccc1)OC1CCN(C(=O)OC2CCN(C(=O)Oc3ccc(Oc4ccccc4)cc3)CC2)CC1	50 to 60 °C
N[C@@H](Cc1ccc(F)cc1)[C@H](O)c1ccc(C(F)(F)F)cc1 (racemic)	130 to 131 °C
Fc1ccccc1Cn1cnc2c(NC3CC3)nc(C(F)(F)F)nc21	118 to 119 °C
COc1cccc(COc2ncc(F)c(N/N=C/c3cccs3)n2)c1	136 to 139 °C
O=c1ccn(CCO)c(C(O)c2cccs2)c1OCc1ccccc1 (centres undefined)	194 to 196 °C
COC(=O)c1nc(-c2ccc(Cl)c(OC)c2F)c(F)c(N)c1Cl	169 to 170 °C
O=C(O)COc1c(Cl)cc(Cl)cc1Cl	180 to 183 °C
COc1cc2c(cc1Br)-c1c(Cl)c3c(n1CC2)C(=O)N(C(C)(C)C)CCCC3	203 to 205 °C
Nc1cccc2c1COC2	85 to 89 °C

Compound	melting point
ClCc1ccc(C#Cc2ccccc2)cc1	61.5 to 63.5 °C
NS(=O)(=O)OCCCCOc1ccccc1	76 to 77 °C
O=C(O)C=CC(=O)Nc1n[nH]c2ccc(Br)cc12	172 °C
CC(C)(C)OC(=O)N(Cc1ccc(C(=O)NCC(=N)NO)cc1)c1ccc(C(C)(C)C)cc1	154 to 156 °C
CCCC/C(=C\C=C\C(=O)Oc1ccc([N+](=O)[O-])cc1)c1ccc(OC)cc1	78 to 80 °C
Cc1n[nH]c([N+](=O)[O-])c1-c1ncc([N+](=O)[O-])n1C	184 °C
CC1CN(C(=O)CO)C(C)(C)O1 (centres undefined)	50 to 53 °C
COC(=O)NNC(=O)Nc1cc(Cl)cc(Cl)c1	246 °C
Cc1cc(O)ccc1-c1cc2cc(O)ccc2o1	167 to 169 °C
COc1cc(COC(=O)NC2Cc3ccccc3C2)ccc1OC(C)=O	114 to 116 °C
CCOC(=O)C1=C(c2ccc(OC)cc2)Nc2n[nH]cc2C1c1ccccc1Cl (centres undefined)	211 °C
COc1ccc(-c2ncn(-c3cc(OC)c(OC)c(OC)c3)c2-c2cc(OC)c(OC)c(OC)c2)cc1OC	160 to 161 °C
O=c1ccoc(C(O)c2cccc(F)c2)c1OCc1ccccc1 (centres undefined)	95 to 96 °C
CCCCCCc1cc2c(s1)-n1c(C)nnc1CN=C2c1ccc(C)cc1C	99 to 101 °C
COc1ccc(CNc2nc(C)nc(C)c2Cl)cc1OCc1ccccc1	111 to 117 °C
CCc1nc(N)nc(N)c1-c1ccc(N(C)Cc2ccc(C(=O)NC)cc2)c([N+](=O)[O-])c1	235 to 237 °C
COC(=O)c1cnc(N2CCN(CC3CC3)C2=O)s1	124 to 126 °C
Oc1ccc(CNC2=NCCc3ccccc32)cc1	177 to 179 °C
CCc1ccc2c(c1)C(c1ccccc1F)=NCC1CN=C(C)N21 (centres undefined)	152 to 154 °C
CO[C@@H]1[C@@H](OC)[C@H](C)O[C@@H](OC(=O)Nc2ccc(-c3ccnc(-c4ccc(C(F)(F)F)cc4)n3)cc2)[C@@H]1OC	176 to 179 °C
CCO[C@@H](Cc1ccc(OCCc2nc(-c3ccc(C(F)(F)F)cc3)oc2C)c2ccsc12)C(=O)O	126 to 128 °C

Next, values leading:

melting point	Compound
277 to 280 °C	CCOC(=O)Cn1cc(C(=O)O)c2nc3c(C)cccc3cc2c1=O
105 to 107 °C	CC(O)Cc1c2ccccc2cc2ccccc12 (centres undefined)
> 300 °C	CCCn1cc2c(C3C(=O)Nc4ccc(Br)cc43)nc(NCCCN)nc2n1 (centres undefined)
163 to 164 °C	COc1ccccc(NS(=O)(=O)c2ccc(C)cc2)c1=O
175 to 177 °C	CCOC(=O)c1c[nH]c2c(OCOC)ccc(OC)c2c1=O
119 to 120 °C	Cc1ccc([N+](=O)[O-])cc1S(=O)(=O)n1ccnc1
99 to 102 °C	CCCCOC(=O)[C@H]1CN(c2ccc3c(c2)sc(=O)n3CC)C(=O)O1
187 to 189 °C	CN(c1cc2occc(=O)c2cc1Oc1ccccc1)S(C)(=O)=O
93 °C	CCCCC[C@H]1CC[C@H](c2ccc(-c3ccc(C#N)cc3)cc2)CC1
219 to 220 °C	CNC(=O)c1c(NC(=O)c2cc(C(F)(F)F)nn2-c2ncccc2Cl)ccc2cccnc12
158 °C	COc1ccc(Cc2nc3c(c4c2[nH]c2ccccc24)CCC(C)(C)C3)cc1
49.5 to 52 °C	CCC(C(=O)N(C)C)n1cc(Cl)c(-c2ccccc2C)n1 (centres undefined)
152 to 154 °C	CCOC(=O)c1cn(-c2ccc(F)cc2F)c2c(F)c(F)c(F)c(C)c2c1=O
208 to 218 °C	COc1ccc2c(c1)S(=O)(=O)NC(C)N2 (centres undefined)
188 to 189 °C	Cn1cc2c(n1)Nc1ccc(F)cc1N=C2N1CCN(CC2CC2)CC1
59 to 61 °C	C=Cc1cc(C(C)NC(=O)OC(C)(C)C)cc(F)c1N (centres undefined)
202 to 204 °C	C#CCOc1cc(-n2c(=O)cc(C(F)(F)F)[nH]c2=O)ccc1C
> 250 °C	CCOC(=O)Cn1c(=O)c(=O)[nH]c2cc(C(F)(F)F)c(N)cc21

melting point	Compound
226 to 228 °C	O=C1CCCN1c1cccc(-c2ccnc3c([N+](=O)[O-])cnn23)c1
186 to 191 °C	CS(=O)(=O)Nc1cc(NC(=O)CC(=O)C(F)(F)F)c(F)cc1C#N
143 to 144 °C	CCCn1c(=O)c2nc(C(C)Cc3ccc(OCC(=O)NCCN)cc3)[nH]c2n(CCC)c1=O (centres undefined)
109 to 111 °C	CC1(C)COC(c2ccc3c(c2)COC3=O)=N1
215 to 220 °C	Cc1cccc(NC(=O)c2cc(C(F)(F)F)nn2-c2ccccc2Cl)c1NC(=O)C(C)C
106 to 107 °C	Cc1ccc(S(=O)(=O)OCC2COc3cc(F)c([N+](=O)[O-])cc3O2)cc1 (centres undefined)
258 to 260 °C	COc1ccc(-n2nc(Sc3ccc([N+](=O)[O-])cc3)c(C)c(C#N)c2=O)cc1
330 °C	O=C1NC(=O)C2(C=COc3c2ccc2ncccc32)N1 (centres undefined)
125 to 128 °C	Cc1cc(C)c2c(c1C)OC1(CCN(Cc3ccccc3)CC1)C2c1ccc(C(C)C)cc1 (centres undefined)
204 to 205 °C	CC(C)CN1C(=O)C(C)(C)C(=O)Nc2cc(C#N)ccc21
139 to 140 °C	O=C1c2ccccc2C(=O)N1CCc1ccc2c(c1)OCO2
251 °C	CCCC1=C(C(=O)OCC)C(c2cccnc2)c2c[nH]nc2N1 (centres undefined)
194 to 198 °C	Cc1ccc(-c2ccc(S(=O)(=O)Nc3cc(C)no3)cc2)cc1
147 to 148 °C	Cc1ccc(NC(=O)c2cc(Cl)ccc2NCC2CCN(C(C)C)CC2)nc1
210 to 215 °C	N#Cc1cc(O)c(O)c(C#N)c1CCCCC(=O)O
85 °C	CC(C)(C)c1ccc(OCC(=O)N2Cc3ccc(C(=O)NCc4cccnc4)n3Cc3ccccc32)cc1
172 to 173 °C	CCCN1CCC(C(=O)O)=Cc2cc(Br)ccc21
50 °C	CCCCOC(=O)c1ccc2ccc(C)nc2c1O
